# Experiments:
# Assay in all cases: biochemical
# Set-up in all cases: Ubiquigent DUB profiler selectivity panel, remaining enzyme activity as % of control
# Conditions in all cases: read-out: % of control remaining
# [1] = biological target: USP11 (Homo sapiens, UniProt P51784)
# Description: (§1) Previous work has reported IC50 values for a series of benzosulphonamide inhibitors, of which all those <1 μM were screened for selectivity, in comparison to three other USP family members ([20], [21]). We have selected one of these compounds (CMPD-39, Fig 1A) for a more rigorous test of selectivity provided by the Ubiquigent DUB profiler screening platform comprising >40 DUBs. […] To test engagement of the inhibitor with USP30 applied to intact cells, we assayed competition with Ub-PA (Ub-propargylamide). Ub-PA covalently binds to the USP30 active site leading to a characteristic upshift on a SDS–PAGE gel ([22]). If a drug blocks access to the catalytic site, then the probe modification is blocked and the apparent molecular weight of USP30 shifts down accordingly. […] A robust proxy read-out for target engagement is the enhancement of TOMM20 ubiquitylation after mitochondrial depolarization ([6], [16]). This second assay indicates a maximal effect with 200 nM CMPD-39 applied to RPE1-YFP-PRKN cells (Fig 1D).  Figure 1. CMPD-39 is a selective USP30 inhibitor. (A) Chemical structure of CMPD-39. (B) DUB specificity screen (DUB profiler, Ubiquigent) with 1-100 μM CMPD-39. […] Samples were incubated with CMPD-39 for 2 h at the indicated concentrations, then incubated with HA-Ub-PA probe for 10 min at 37°C and immunoblotted as shown. Red arrow indicates unbound USP30; blue arrow represents probe bound USP30. (D) Inhibition of USP30 enhances the ubiquitylation of TOMM20 in YFP-PRKN over-expressing hTERT-RPE1 cells in a concentration dependent manner in response to mitophagy induction. Cells were treated for 1 h with DMSO or antimycin A and oligomycin A (AO; 1 μM each) in the absence or presence of CMPD-39 at the indicated concentrations, lysed, and analyzed by Western blotting. Black arrow indicates unmodified TOMM20, ubiquitylated species are indicated by red (mono-ubiquitylated) or blue arrow heads. […] Source data are available for this figure.
# [2] = biological target: T1, CYLD (Homo sapiens, UniProt Q9NQC7)
# T1 sequence (Q9NQC7 1-956): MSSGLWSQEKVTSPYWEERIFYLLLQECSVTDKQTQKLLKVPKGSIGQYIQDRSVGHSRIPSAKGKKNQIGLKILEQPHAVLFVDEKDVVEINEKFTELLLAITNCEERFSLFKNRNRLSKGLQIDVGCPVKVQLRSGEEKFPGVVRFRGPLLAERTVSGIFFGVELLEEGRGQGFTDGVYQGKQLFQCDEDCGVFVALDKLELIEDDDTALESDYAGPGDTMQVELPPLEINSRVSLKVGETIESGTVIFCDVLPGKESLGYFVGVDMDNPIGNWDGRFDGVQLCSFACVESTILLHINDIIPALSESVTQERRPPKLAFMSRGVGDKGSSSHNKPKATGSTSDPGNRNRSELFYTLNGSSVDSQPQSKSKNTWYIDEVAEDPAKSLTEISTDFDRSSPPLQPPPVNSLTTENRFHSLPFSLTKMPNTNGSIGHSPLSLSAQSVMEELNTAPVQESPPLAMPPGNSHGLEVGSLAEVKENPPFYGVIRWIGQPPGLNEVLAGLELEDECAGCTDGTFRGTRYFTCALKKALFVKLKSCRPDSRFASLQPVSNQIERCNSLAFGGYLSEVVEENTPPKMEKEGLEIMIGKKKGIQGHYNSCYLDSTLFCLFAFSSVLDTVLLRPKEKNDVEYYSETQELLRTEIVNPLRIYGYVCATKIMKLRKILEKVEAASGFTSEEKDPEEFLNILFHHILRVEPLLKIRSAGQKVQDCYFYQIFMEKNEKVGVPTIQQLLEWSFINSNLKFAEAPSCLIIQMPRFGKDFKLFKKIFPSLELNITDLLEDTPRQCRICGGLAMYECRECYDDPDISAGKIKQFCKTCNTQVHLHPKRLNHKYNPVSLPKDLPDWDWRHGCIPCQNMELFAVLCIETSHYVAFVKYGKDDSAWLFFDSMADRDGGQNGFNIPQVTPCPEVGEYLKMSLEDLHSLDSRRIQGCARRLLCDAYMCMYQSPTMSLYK
# Description: as §1
# [3] = biological target: T2, USP4 (Homo sapiens, UniProt Q13107)
# T2 sequence (Q13107 1-963): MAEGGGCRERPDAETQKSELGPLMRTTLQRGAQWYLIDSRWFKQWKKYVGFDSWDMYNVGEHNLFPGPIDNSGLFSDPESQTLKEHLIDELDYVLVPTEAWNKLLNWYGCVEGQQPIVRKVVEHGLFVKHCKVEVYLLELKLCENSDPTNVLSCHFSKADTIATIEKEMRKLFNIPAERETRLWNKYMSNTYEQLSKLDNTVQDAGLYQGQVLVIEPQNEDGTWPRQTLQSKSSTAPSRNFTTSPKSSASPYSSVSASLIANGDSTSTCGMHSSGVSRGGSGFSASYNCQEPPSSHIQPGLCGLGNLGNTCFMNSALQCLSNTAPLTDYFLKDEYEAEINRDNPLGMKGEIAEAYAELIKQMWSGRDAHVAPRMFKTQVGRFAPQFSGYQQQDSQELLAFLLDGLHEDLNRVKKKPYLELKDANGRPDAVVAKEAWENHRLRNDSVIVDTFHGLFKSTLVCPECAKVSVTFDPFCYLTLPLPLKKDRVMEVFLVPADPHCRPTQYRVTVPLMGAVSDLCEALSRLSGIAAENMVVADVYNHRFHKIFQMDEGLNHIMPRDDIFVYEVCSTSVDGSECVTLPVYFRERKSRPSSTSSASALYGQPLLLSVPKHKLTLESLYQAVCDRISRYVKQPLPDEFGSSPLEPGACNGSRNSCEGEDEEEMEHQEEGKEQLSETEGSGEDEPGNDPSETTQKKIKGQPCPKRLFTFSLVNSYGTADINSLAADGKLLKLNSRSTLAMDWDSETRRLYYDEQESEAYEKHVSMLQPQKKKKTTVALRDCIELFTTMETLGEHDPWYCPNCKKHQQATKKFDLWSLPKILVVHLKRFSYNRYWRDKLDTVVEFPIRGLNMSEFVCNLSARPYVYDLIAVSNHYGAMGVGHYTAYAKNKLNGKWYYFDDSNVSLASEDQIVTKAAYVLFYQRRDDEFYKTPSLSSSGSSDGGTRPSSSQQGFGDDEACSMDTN
# Description: as §1
# USP11, sequence (P51784 whole entry): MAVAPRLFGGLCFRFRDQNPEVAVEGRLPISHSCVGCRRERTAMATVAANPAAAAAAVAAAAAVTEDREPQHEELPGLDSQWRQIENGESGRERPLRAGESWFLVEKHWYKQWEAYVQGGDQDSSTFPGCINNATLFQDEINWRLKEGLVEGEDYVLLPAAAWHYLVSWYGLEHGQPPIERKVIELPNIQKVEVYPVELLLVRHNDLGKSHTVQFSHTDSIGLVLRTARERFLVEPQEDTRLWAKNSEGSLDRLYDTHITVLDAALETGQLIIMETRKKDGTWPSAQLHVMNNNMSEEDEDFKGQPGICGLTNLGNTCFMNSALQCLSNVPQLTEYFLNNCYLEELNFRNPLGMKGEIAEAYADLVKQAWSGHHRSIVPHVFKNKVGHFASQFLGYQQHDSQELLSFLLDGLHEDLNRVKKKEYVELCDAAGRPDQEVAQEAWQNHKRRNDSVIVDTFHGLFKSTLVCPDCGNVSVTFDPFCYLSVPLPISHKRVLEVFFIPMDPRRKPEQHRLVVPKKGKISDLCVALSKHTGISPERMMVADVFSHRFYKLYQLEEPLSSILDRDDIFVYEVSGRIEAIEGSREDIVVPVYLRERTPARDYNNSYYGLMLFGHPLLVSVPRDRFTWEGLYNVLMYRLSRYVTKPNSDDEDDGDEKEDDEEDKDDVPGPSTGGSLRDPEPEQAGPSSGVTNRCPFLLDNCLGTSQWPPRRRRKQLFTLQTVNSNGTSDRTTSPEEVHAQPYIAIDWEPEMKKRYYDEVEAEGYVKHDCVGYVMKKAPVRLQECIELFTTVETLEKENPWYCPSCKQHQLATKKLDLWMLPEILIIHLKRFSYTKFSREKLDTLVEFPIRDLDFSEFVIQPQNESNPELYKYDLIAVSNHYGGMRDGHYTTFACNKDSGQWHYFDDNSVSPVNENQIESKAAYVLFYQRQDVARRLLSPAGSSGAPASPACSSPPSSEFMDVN
structure (smiles),measurement,setting,value
"CC(C)(C)NS(=O)(=O)c1ccc(NC(=O)[C@H](Cc2ccccc2)NC(=O)c2ccc(F)cc2)cc1 [compound 39, CMPD-39]",remaining activity at 1 µM,[1],103%
same,remaining activity at 10 µM,[1],98.4%
same,remaining activity at 100 µM,[1],97.2%
same,remaining activity at 1 µM,[2],107%
same,remaining activity at 10 µM,[2],102%
same,remaining activity at 100 µM,[2],98%
same,remaining activity at 1 µM,[3],107%
same,remaining activity at 10 µM,[3],103%
same,remaining activity at 100 µM,[3],98.9%
